# Reference: US20150105252A1, “SUBSTITUTED PYRAZOLES AS HERBICIDES” (E I DU PONT DE NEMOURS AND COMPANY, priority 2013, published 2015)
# How the values were obtained:
# oilseed rape [1] = assay: Test C postemergence; type: in vivo, Brassica napus; conditions: postemergence; for Oilseed Rape plant response rating: 62 g ai/ha, scale 0 to 100
# Method in brief: (§1)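 Herbicidal effect is expressed as percent visual control (0–100) judged against untreated plants 13 to 15 days after treatment in the greenhouse. Preemergence pots contained seeds in a soil–sand blend; postemergence plants, 2–18 cm tall, grew in peat-based planting medium.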
# velvetleaf [2] = assay: Test C preemergence; type: in vivo, Abutilon theophrasti; conditions: preemergence; for Plant response rating, Velvetleaf: 125 g ai/ha, scale 0 to 100, 0 = no effect, 100 = complete control
# Method in brief: as §1
# nutsedge, yellow = assay: Test C preemergence; type: in vivo, Cyperus esculentus; conditions: preemergence; for Plant response rating, Nutsedge, Yellow: 125 g ai/ha, scale 0 to 100, 0 = no effect, 100 = complete control
# Method in brief: as §1
# corn = assay: Test C postemergence; type: in vivo, Zea mays; conditions: for Plant response rating (scale of 0 to 100 where 0 is no effect and 100 is complete control), Corn: Postemergence, 31 g ai/ha, visually evaluated after 13 to 15 days; for Corn plant response rating / Plant response rating, Corn: postemergence; for Corn plant response rating: 62 g ai/ha, scale 0 to 100
# Method in brief: as §1
# crabgrass, large [3] = assay: Test A postemergence; type: in vivo, Digitaria sanguinalis
# Method in brief: (§2)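 Visual injury rating, 0–100 (0 no effect, 100 complete control), vs untreated controls ~10 days after treatment in greenhouse. Pre: directed soil spray on seeded loam/sand. Post: 2–10 cm plants, 1–2 leaf stage. Formulation: non-phytotoxic solvent mix + surfactant.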
# wheat = assay: Test C postemergence; type: in vivo, Triticum aestivum; conditions: postemergence; for Plant response rating, Wheat: 250 g ai/ha, scale 0 to 100 (0 no effect, 100 complete control); for Wheat plant response rating: scale 0 to 100
# Method in brief: as §1
# oilseed rape [4] = assay: Test C preemergence; type: in vivo, Brassica napus; conditions: preemergence; for Plant response rating, Oilseed Rape: 125 g ai/ha, scale 0 to 100, 0 = no effect, 100 = complete control
# Method in brief: as §1
# barnyardgrass [5] = assay: Test A preemergence; type: in vivo, Echinochloa crus-galli; conditions: preemergence; for Barnyardgrass plant response rating (0 to 100 scale, 0 is no effect, 100 is complete control): 125 g ai/ha, visual injury approx. 10 days after treatment; for Barnyardgrass plant response rating: 500 g ai/ha, visual injury after approx. 10 days, 0 to 100 scale (0 no effect, 100 complete control)
# Method in brief: as §2
# barnyardgrass [6] = assay: Test C postemergence; type: in vivo, Echinochloa crus-galli; conditions: for Plant response rating (scale of 0 to 100 where 0 is no effect and 100 is complete control), Barnyardgrass: Postemergence, 31 g ai/ha, visually evaluated after 13 to 15 days; for Barnyardgrass plant response rating / Plant response rating, Barnyardgrass: postemergence; for Barnyardgrass plant response rating: 62 g ai/ha, scale 0 to 100
# Method in brief: as §1
# crabgrass, large [7] = assay: Test A preemergence; type: in vivo, Digitaria sanguinalis; conditions: preemergence; for Crabgrass, Large plant response rating (0 to 100 scale): 125 g ai/ha, visual injury approx. 10 days after treatment; for Crabgrass, Large plant response rating: 500 g ai/ha, visual injury after approx. 10 days, 0 to 100 scale (0 no effect, 100 complete control)
# Method in brief: as §2
# barnyardgrass [8] = assay: Test A postemergence; type: in vivo, Echinochloa crus-galli
# Method in brief: as §2
# velvetleaf [9] = assay: Test C postemergence; type: in vivo, Abutilon theophrasti; conditions: postemergence; for Plant response rating, Velvetleaf: 250 g ai/ha, scale 0 to 100 (0 no effect, 100 complete control); for Velvetleaf plant response rating: scale 0 to 100
# Method in brief: as §1
# pigweed = assay: Test A postemergence; type: in vivo, Amaranthus retroflexus; conditions: Postemergence
# Method in brief: as §2
# soybean [10] = assay: Test C postemergence; type: in vivo, Glycine max; conditions: postemergence; for Plant response rating, Soybean: 250 g ai/ha, scale 0 to 100 (0 no effect, 100 complete control); for Soybean plant response rating: 125 g ai/ha, scale 0 to 100, 0 no effect, 100 complete control
# Method in brief: as §1
# velvetleaf [11] = assay: Test A preemergence; type: in vivo, Abutilon theophrasti; conditions: preemergence; for Velvetleaf plant response rating (0 to 100 scale): 125 g ai/ha, visual injury approx. 10 days after treatment; for Velvetleaf plant response rating: 500 g ai/ha, visual injury after approx. 10 days, 0 to 100 scale (0 no effect, 100 complete control)
# Method in brief: as §2
# soybean [12] = assay: Test C preemergence; type: in vivo, Glycine max; conditions: preemergence; for Plant response rating, Soybean: 125 g ai/ha, scale 0 to 100, 0 = no effect, 100 = complete control
# Method in brief: as §1
# [13] = 250 g ai/ha, scale 0 to 100 (0 no effect, 100 complete control)
# [14] = 125 g ai/ha, scale 0 to 100, 0 no effect, 100 complete control
# [15] = 31 g ai/ha, visual rating, scale 0 to 100 (0 no effect, 100 complete control), 13 to 15 days
# [16] = 62 g ai/ha, scale 0 to 100 (0 no effect, 100 complete control), 13 to 15 days
# [17] = 250 g ai/ha, scale 0 to 100, 0 is no effect, 100 is complete control
# [18] = Postemergence, 500 g ai/ha, 0 to 100 scale (0 no effect, 100 complete control)
# [19] = postemergence, 125 g ai/ha, about 10 days, visual rating on 0 to 100 scale (0 no effect, 100 complete control)
# [20] = 125 g ai/ha, 0 to 100 scale, 0 no effect, 100 complete control
# [21] = 500 g ai/ha, 0 to 100 scale (0 no effect, 100 complete control)
smiles,measurement,setting,value
CCCc1cc(C(=O)NC(C)C)nn1Cc1ccnc(C(F)(F)F)c1 [Compound 186],Oilseed Rape plant response rating,oilseed rape [1],60
same,"Plant response rating, Oilseed Rape",oilseed rape [1]; [13],85
same,"Plant response rating, Oilseed Rape",oilseed rape [1]; [14],80
same,Velvetleaf plant response rating,velvetleaf [2]; [15],100
same,Velvetleaf plant response rating,velvetleaf [2]; [16],100
same,"Plant response rating, Velvetleaf",velvetleaf [2]; 13 to 15 days,100
same,Velvetleaf plant response rating,velvetleaf [2]; [17],100
same,"Nutsedge, Yellow plant response rating","nutsedge, yellow; [15]",10
same,"Nutsedge, Yellow plant response rating","nutsedge, yellow; [16]",60
same,"Plant response rating, Nutsedge, Yellow","nutsedge, yellow; 13 to 15 days",85
same,"Nutsedge, Yellow plant response rating","nutsedge, yellow; [17]",98
same,"Plant response rating (scale of 0 to 100 where 0 is no effect and 100 is complete control), Corn",corn,5
same,Corn plant response rating,corn,40
same,"Plant response rating, Corn",corn; [13],65
same,"Plant response rating, Corn",corn; [14],75
same,"Crabgrass, Large plant response rating","crabgrass, large [3]; [18]",90
same,"Crabgrass, Large plant response rating","crabgrass, large [3]; [19]",90
same,"Plant response rating, Wheat",wheat,20
same,Wheat plant response rating,wheat,15
same,Oilseed Rape plant response rating,oilseed rape [4]; [15],100
same,Oilseed Rape plant response rating,oilseed rape [4]; [16],100
same,"Plant response rating, Oilseed Rape",oilseed rape [4]; 13 to 15 days,100
same,Oilseed Rape plant response rating,oilseed rape [4]; [17],95
same,"Barnyardgrass plant response rating (0 to 100 scale, 0 is no effect, 100 is complete control)",barnyardgrass [5],100
same,Barnyardgrass plant response rating,barnyardgrass [5],100
same,"Plant response rating (scale of 0 to 100 where 0 is no effect and 100 is complete control), Barnyardgrass",barnyardgrass [6],5
same,Barnyardgrass plant response rating,barnyardgrass [6],10
same,"Plant response rating, Barnyardgrass",barnyardgrass [6]; [13],55
same,"Plant response rating, Barnyardgrass",barnyardgrass [6]; [14],10
same,"Crabgrass, Large plant response rating (0 to 100 scale)","crabgrass, large [7]",100
same,"Crabgrass, Large plant response rating","crabgrass, large [7]",100
same,Barnyardgrass plant response rating,barnyardgrass [8]; [18],90
same,Barnyardgrass plant response rating,barnyardgrass [8]; [19],90
same,"Plant response rating, Velvetleaf",velvetleaf [9],80
same,Velvetleaf plant response rating,velvetleaf [9],55
same,Pigweed plant response rating,pigweed; [20],60
same,Pigweed plant response rating,pigweed; [21],100
same,"Plant response rating, Soybean",soybean [10],95
same,Soybean plant response rating,soybean [10],95
same,Velvetleaf plant response rating (0 to 100 scale),velvetleaf [11],100
same,Velvetleaf plant response rating,velvetleaf [11],100
same,Soybean plant response rating,soybean [12]; [15],85
same,Soybean plant response rating,soybean [12]; [16],65
same,"Plant response rating, Soybean",soybean [12]; 13 to 15 days,98
same,Soybean plant response rating,soybean [12]; [17],98
CCCc1cc(C(=O)NC2CC2)nn1Cc1cc(C(F)(F)F)nn1C [Compound 202],Oilseed Rape plant response rating,oilseed rape [1],30
same,"Plant response rating, Oilseed Rape",oilseed rape [1]; [13],80
same,"Plant response rating, Oilseed Rape",oilseed rape [1]; [14],65
same,Velvetleaf plant response rating,velvetleaf [2]; [15],60
same,Velvetleaf plant response rating,velvetleaf [2]; [16],100
same,"Plant response rating, Velvetleaf",velvetleaf [2]; 13 to 15 days,100
same,Velvetleaf plant response rating,velvetleaf [2]; [17],100
same,"Nutsedge, Yellow plant response rating","nutsedge, yellow; [15]",0
same,"Nutsedge, Yellow plant response rating","nutsedge, yellow; [16]",5
same,"Plant response rating, Nutsedge, Yellow","nutsedge, yellow; 13 to 15 days",30
same,"Nutsedge, Yellow plant response rating","nutsedge, yellow; [17]",50
same,"Plant response rating (scale of 0 to 100 where 0 is no effect and 100 is complete control), Corn",corn,5
same,Corn plant response rating,corn,10
same,"Plant response rating, Corn",corn; [13],25
same,"Plant response rating, Corn",corn; [14],15
same,"Crabgrass, Large plant response rating","crabgrass, large [3]; [18]",100
same,"Crabgrass, Large plant response rating","crabgrass, large [3]; [19]",90
same,"Plant response rating, Wheat",wheat,5
same,Wheat plant response rating,wheat,5
same,Oilseed Rape plant response rating,oilseed rape [4]; [15],100
same,Oilseed Rape plant response rating,oilseed rape [4]; [16],100
same,"Plant response rating, Oilseed Rape",oilseed rape [4]; 13 to 15 days,100
same,Oilseed Rape plant response rating,oilseed rape [4]; [17],100
same,"Barnyardgrass plant response rating (0 to 100 scale, 0 is no effect, 100 is complete control)",barnyardgrass [5],90
same,Barnyardgrass plant response rating,barnyardgrass [5],100
same,"Plant response rating (scale of 0 to 100 where 0 is no effect and 100 is complete control), Barnyardgrass",barnyardgrass [6],10
same,Barnyardgrass plant response rating,barnyardgrass [6],10
same,"Plant response rating, Barnyardgrass",barnyardgrass [6]; [13],25
same,"Plant response rating, Barnyardgrass",barnyardgrass [6]; [14],15
same,"Crabgrass, Large plant response rating (0 to 100 scale)","crabgrass, large [7]",100
same,"Crabgrass, Large plant response rating","crabgrass, large [7]",100
same,Barnyardgrass plant response rating,barnyardgrass [8]; [18],100
same,Barnyardgrass plant response rating,barnyardgrass [8]; [19],90
same,"Plant response rating, Velvetleaf",velvetleaf [9],65
same,Velvetleaf plant response rating,velvetleaf [9],40
same,Pigweed plant response rating,pigweed; [20],100
same,Pigweed plant response rating,pigweed; [21],100
same,"Plant response rating, Soybean",soybean [10],98
same,Soybean plant response rating,soybean [10],98
same,Velvetleaf plant response rating (0 to 100 scale),velvetleaf [11],30
same,Velvetleaf plant response rating,velvetleaf [11],100
same,Soybean plant response rating,soybean [12]; [15],65
same,Soybean plant response rating,soybean [12]; [16],70
same,"Plant response rating, Soybean",soybean [12]; 13 to 15 days,85
same,Soybean plant response rating,soybean [12]; [17],98
